Data on 14 compounds can be found in US9926297B2, “Bicyclic AZA compounds as muscarinic M1 receptor and/or M4 receptor agonists” (Heptares Therapeutics Limited, priority 2014, dated 2018).

A value given as a limit tells only on which side of the number the result lay.

Experiment [1] addresses T1, human muscarinic M4 receptor (Homo sapiens, UniProt P08173).
T1 construct: expressed in transfected cells
T1 sequence (P08173 1-479): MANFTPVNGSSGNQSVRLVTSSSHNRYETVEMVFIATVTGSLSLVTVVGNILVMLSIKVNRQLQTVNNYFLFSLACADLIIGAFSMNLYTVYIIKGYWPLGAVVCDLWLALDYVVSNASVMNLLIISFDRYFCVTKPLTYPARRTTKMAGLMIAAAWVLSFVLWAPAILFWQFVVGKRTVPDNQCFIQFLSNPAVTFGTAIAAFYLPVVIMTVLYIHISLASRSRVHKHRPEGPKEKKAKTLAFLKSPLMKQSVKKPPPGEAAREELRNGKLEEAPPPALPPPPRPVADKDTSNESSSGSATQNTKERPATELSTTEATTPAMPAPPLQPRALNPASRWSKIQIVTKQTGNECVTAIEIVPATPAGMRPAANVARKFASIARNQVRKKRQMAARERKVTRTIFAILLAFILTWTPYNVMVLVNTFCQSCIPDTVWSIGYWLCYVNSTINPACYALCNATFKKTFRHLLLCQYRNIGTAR
Briefly: Alphascreen Surefire phospho-ERK1/2 functional assay, M4. As to conditions: for EC50: CHO cells stably expressing human M4, phospho-ERK1/2, * = variable results, read-out: pEC50 M4 (converted); for Emax: CHO, read-out: % Emax cf. ACh, M4, CHO cells stably expressing human M4, relative to ACh. It is filed as cell-based.

The target in experiment [2] is human muscarinic M3 receptor (Homo sapiens, UniProt P20309). Briefly: Alphascreen Surefire phospho-ERK1/2 functional assay, M3. Particulars: for Emax: CHO, read-out: % Emax cf. ACh, M3, CHO cells stably expressing human M3, relative to ACh; for EC50: pEC50 M3, CHO cells stably expressing human M3, phospho-ERK1/2, * = variable results. On the technique in general: In Alpha technology, singlet oxygen from a donor bead excites a nearby acceptor bead.

In experiment [3] the target is T2, human muscarinic M1 receptor (Homo sapiens, UniProt P11229).
T2 sequence (P11229 1-460): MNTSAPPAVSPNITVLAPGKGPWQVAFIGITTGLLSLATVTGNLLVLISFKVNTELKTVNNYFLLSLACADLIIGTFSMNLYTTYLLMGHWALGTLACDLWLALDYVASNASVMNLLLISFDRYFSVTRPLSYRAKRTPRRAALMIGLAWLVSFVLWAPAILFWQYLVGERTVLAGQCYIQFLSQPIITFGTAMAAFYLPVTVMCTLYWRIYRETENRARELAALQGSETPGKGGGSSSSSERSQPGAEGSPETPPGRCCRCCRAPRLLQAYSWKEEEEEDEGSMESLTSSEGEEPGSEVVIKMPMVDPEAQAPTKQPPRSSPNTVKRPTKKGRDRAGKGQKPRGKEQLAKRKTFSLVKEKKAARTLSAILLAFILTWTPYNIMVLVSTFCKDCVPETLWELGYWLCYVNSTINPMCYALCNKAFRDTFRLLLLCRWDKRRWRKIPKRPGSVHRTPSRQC
As to the kind of experiment: Alphascreen Surefire phospho-ERK1/2 functional assay, M1. It is filed as cell-based. As to conditions: for EC50: CHO cells stably expressing human M1, phospho-ERK1/2, * = variable results, read-out: pEC50 M1 (converted); for Emax: CHO, read-out: % Emax cf. ACh, M1, CHO cells stably expressing human M1, relative to ACh.
Method: (§1) CHO cells stably expressing the human muscarinic M1, M2, M3 or M4 receptor were plated (25K/well) onto 96-well tissue culture plates in MEM-alpha+10% dialysed FBS. Once adhered, cells were serum-starved overnight. Agonist stimulation was performed by the addition of 5 μL agonist to the cells for 5 min (37° C.). Media was removed and 50 μL of lysis buffer added. After 15 min, a 4 μL sample was transferred to 384-well plate and 7 μL of detection mixture added. Plates were incubated for 2 h with gentle agitation in the dark and then read on a PHERAstar plate reader.
(§2) pEC50 and Emax figures were calculated from the resulting data for each receptor subtype.

Experiment [4] concerns the target T3, human muscarinic M2 receptor (Homo sapiens, UniProt P08172).
T3 sequence (P08172 1-466): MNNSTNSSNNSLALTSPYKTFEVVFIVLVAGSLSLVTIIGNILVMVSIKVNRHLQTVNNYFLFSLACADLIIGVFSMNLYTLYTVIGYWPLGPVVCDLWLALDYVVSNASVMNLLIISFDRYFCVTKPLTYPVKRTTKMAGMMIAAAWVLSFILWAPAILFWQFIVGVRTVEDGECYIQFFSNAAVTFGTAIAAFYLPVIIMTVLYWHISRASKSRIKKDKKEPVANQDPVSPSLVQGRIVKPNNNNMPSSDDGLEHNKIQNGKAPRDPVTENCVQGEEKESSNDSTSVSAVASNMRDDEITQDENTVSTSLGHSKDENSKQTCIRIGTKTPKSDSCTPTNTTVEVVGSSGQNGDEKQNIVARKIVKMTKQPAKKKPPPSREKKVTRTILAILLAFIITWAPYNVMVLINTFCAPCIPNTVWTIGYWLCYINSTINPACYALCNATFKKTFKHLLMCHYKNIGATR
As to the kind of experiment: Alphascreen Surefire phospho-ERK1/2 functional assay, M2. Particulars: for Emax: CHO, read-out: % Emax cf. ACh, M2, CHO cells stably expressing human M2, relative to ACh.
Method: as §1, §2

human muscarinic M3 receptor, sequence (P20309 whole entry): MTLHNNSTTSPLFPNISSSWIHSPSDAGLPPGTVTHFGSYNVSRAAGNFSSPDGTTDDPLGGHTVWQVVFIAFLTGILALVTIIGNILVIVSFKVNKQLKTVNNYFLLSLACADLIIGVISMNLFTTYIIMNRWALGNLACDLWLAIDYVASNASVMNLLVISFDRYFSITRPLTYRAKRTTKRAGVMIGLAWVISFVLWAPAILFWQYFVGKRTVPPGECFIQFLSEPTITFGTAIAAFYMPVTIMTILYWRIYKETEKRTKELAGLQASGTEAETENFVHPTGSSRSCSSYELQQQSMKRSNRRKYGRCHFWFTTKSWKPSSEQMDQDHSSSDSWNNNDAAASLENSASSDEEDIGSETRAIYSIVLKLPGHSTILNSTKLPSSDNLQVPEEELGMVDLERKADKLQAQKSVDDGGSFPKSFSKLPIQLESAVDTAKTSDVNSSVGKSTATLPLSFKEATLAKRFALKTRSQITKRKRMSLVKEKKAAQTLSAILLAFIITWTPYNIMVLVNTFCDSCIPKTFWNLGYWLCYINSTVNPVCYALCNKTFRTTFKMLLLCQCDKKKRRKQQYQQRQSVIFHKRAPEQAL

Broadly, the Emax is the greatest response seen or fitted, relative to the assay's reference. For `CCOC(=O)N1CCC2(CC(N3CCC(C4CCCN4C=O)CC3)C2)C1` (single isomer, unassigned) [2-2 Isomer 2, ethyl 2-[4-(1-formylpyrrolidin-2-yl)piperidin-1-yl]-6-azaspiro[3.4]octane-6-carboxylate], the EC50 in experiment [1] is 63.1 nM; in experiment [2] it was greater than 20000 nM; in experiment [3], 794 nM; in experiment [4] it was greater than 20000 nM. The Emax in experiment [1] was determined as 79%; in experiment [2], 16%; in experiment [3], 39%; in experiment [4], 53%.
In the case of `CCOC(=O)N1CCC2(CC(N3CCC(c4ccnn4C)CC3)C2)C1` (single isomer, unassigned) [1-21 Isomer 2, ethyl 2-[4-(1-methyl-1H-pyrazol-5-yl)piperidin-1-yl]-6-azaspiro[3.4]octane-6-carboxylate], the EC50 was 39.8 nM in experiment [1], greater than 20000 nM in experiment [2], greater than 20000 nM in experiment [3] and greater than 20000 nM in experiment [4]. The Emax in experiment [3] worked out at 11%.
As for `CCOC(=O)N1CCC2(CC(N3CCC(c4ncns4)CC3)C2)C1` (single isomer, unassigned) [1-30 Isomer 2, ethyl 2-[4-(1,2,4-thiadiazol-5-yl)piperidin-1-yl]-6-azaspiro[3.4]octane-6-carboxylate], the EC50 was 12.6 nM in experiment [1], greater than 20000 nM in experiment [2], 316 nM in experiment [3] and greater than 20000 nM in experiment [4]. The maximal response (Emax) in experiment [1] came to 101%; in experiment [2] it was 5%; in experiment [3], 37%; in experiment [4], 9%.
Take `CCOC(=O)N1CCC2(CC(N3CCC(N4CCCC[C@@H]4C(=O)OC)CC3)C2)C1` (single isomer, unassigned) [4-15 Isomer 2]: the EC50 in experiment [1] is 63.1 nM; in experiment [2] it was greater than 20000 nM; in experiment [3], 251 nM; in experiment [4], greater than 20000 nM. Also, the Emax in experiment [1] was 113%; in experiment [2], 13%; in experiment [3], 82%; in experiment [4], 7%.
Take `CCOC(=O)N1CCC2(CC(N3CCC([C@@H]4CCCN4C(=O)COC)CC3)C2)C1` (single isomer, unassigned) [2-46 Isomer 2]: the EC50 is 15.8 nM in experiment [1], greater than 20000 nM in experiment [2], 1580 nM in experiment [3] and greater than 20000 nM in experiment [4]. For the same compound, the Emax in experiment [1] turned out to be 85%; in experiment [2], 8%; in experiment [3] it was 32%; in experiment [4] it was 5%.
Take `CCOC(=O)N1CCC2(CC(N3CCC(C4CCCN(C(C)C)C4=O)CC3)C2)C1` (single isomer, unassigned) [4-6 Isomer 2, ethyl 2-[2-oxo-1-(propan-2-yl)-3,4′-bipiperidin-1′-yl]-6-azaspiro[3.4]octane-6-carboxylate]: the EC50 in experiment [1] is 50.1 nM; in experiment [2], greater than 20000 nM; in experiment [3] it was 126 nM; in experiment [4], greater than 20000 nM. The Emax was 77% in experiment [1], 9% in experiment [2], 66% in experiment [3] and 75% in experiment [4].
For the compound `CCOC(=O)N1CCC2(CC(N3CCC(c4nc(C)cn4C)CC3)C2)C1` (single isomer, unassigned) [1-12 Isomer 2, ethyl 2-[4-(1,4-dimethyl-1H-imidazol-2-yl)piperidin-1-yl]-6-azaspiro[3.4]octane-6-carboxylate], the EC50 in experiment [1] was 126 nM; in experiment [2] it was greater than 20000 nM; in experiment [3] it was 1000 nM; in experiment [4], greater than 20000 nM. For the same compound, the Emax in experiment [1] came out at 128%; in experiment [2], 15%; in experiment [3], 85%; in experiment [4], 11%.
`CCOC(=O)N1CCC2(CC(N3CCC(N4CC(F)(F)C[C@@H]4CO)CC3)C2)C1` (single isomer, unassigned) [2-107 Isomer 2]: the EC50 in experiment [1] is 6.31 nM; in experiment [2], greater than 20000 nM; in experiment [3] it was 63.1 nM; in experiment [4], greater than 20000 nM. In experiment [2], the Emax stood at 48%.
For the compound `CCOC(=O)N1CCC2(CC(N3CCC(N4CCC[C@@H]4CF)CC3)C2)C1` (single isomer, unassigned) [2-102 Isomer 2], the EC50 in experiment [1] was 316 nM; in experiment [2], greater than 20000 nM; in experiment [3], 5010 nM; in experiment [4], greater than 20000 nM. The Emax in experiment [1] stood at 45%; in experiment [2], 11%; in experiment [3] it was 23%; in experiment [4], 1%.
For `CCOC(=O)N1CCC2(CC(N3CCC(C4CCCN4C(C)=O)CC3)C2)C1` (single isomer, unassigned) [2-3 Isomer 2, ethyl 2-[4-(1-acetylpyrrolidin-2-yl)piperidin-1-yl]-6-azaspiro[3.4]octane-6-carboxylate], the EC50 is 50.1 nM in experiment [1], greater than 20000 nM in experiment [2], 10000 nM in experiment [3] and greater than 20000 nM in experiment [4]. Moreover, the Emax worked out at 89% in experiment [1], 4% in experiment [2], 32% in experiment [3] and 14% in experiment [4].
Take `CCOC(=O)N1CCC2(CC(N3CCC(C4CCCN4C(=O)NC)CC3)C2)C1` (single isomer, unassigned) [2-16 Isomer 2, ethyl 2-{4-[1-(methylcarbamoyl)pyrrolidin-2-yl]piperidin-1-yl}-6-azaspiro[3.4]octane-6-carboxylate]: the EC50 in experiment [1] is 6.31 nM; in experiment [2], greater than 20000 nM; in experiment [3], 251 nM; in experiment [4], greater than 20000 nM. Moreover, the Emax is 114% in experiment [1], 7% in experiment [2], 41% in experiment [3] and 53% in experiment [4].
For `CCOC(=O)N1CCC2(CC(N3CCC([C@@H]4CCCN4C(=O)CC)CC3)C2)C1` (single isomer, unassigned) [2-7 Isomer 2], the EC50 was 12.6 nM in experiment [1], 7940 nM in experiment [2], 794 nM in experiment [3] and greater than 20000 nM in experiment [4]. For the same compound, the maximum response (Emax) in experiment [1] is 100%; in experiment [2] it was 27%; in experiment [3] it was 41%; in experiment [4], 13%.
On to `CCOC(=O)N1CCC2(CC(N3CCC(N4CSC[C@@H]4C(=O)OC)CC3)C2)C1` (single isomer, unassigned) [2-97 Isomer 2], for which the EC50 in experiment [1] is 39.8 nM; in experiment [2], greater than 20000 nM; in experiment [3] it was greater than 20000 nM; in experiment [4] it was greater than 20000 nM. Further, the Emax in experiment [1] was determined as 37%; in experiment [2] it was 3%; in experiment [3], 5%; in experiment [4], 3%.
`CCOC(=O)N1CCC2(CC(N3CCC(N4CC(F)(F)C[C@@H]4C(=O)NC)CC3)C2)C1` (single isomer, unassigned) [2-88 Isomer 2]: the EC50 in experiment [1] was 39.8 nM; in experiment [2], greater than 20000 nM; in experiment [3] it was 316 nM; in experiment [4] it was greater than 20000 nM. The Emax in experiment [1] came out at 44%; in experiment [2] it was 5%; in experiment [3], 25%; in experiment [4], 80%.
